Source: ChEMBL document CHEMBL1201862, “PubChem BioAssay data set” (2004)
Active and inactive are the calls of the source.

Tests used:
[1] = inhibitors of firefly luciferase expression or activity, dose response, H4 neuroglioma cells, luminescence (AID 1990); assay type: functional, cell-based
[2] = Luminescence Cell-Based Dose Response HTS to Identify Inhibitors of 5'UTR Stem-Loop Driven Prion Protein mRNA Translation in H4 Neuroglioblastoma Cells. [Related pubchem assays: 1827 (Project Summary), 1813 (Primary HTS)]; assay type: functional
[3] = inhibitors of SNCA 5'UTR-driven reporter translation, confirmation, H4 neuroglioma cells, luminescence (AID 1988); assay type: functional, cell-based
[4] = biological target: T1, Short transient receptor potential channel 4 (Mus musculus, UniProt Q9QUQ5); assay: mouse TRPC4 channel inhibitors, dose response, cell-based, HEK293 TRPC4/mu-opioid, Fluo-4 calcium (AID 434942); assay type: functional;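 further: potency of inhibitors blocking the TRPC4 calcium response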
T1 sequence (Q9QUQ5 whole entry): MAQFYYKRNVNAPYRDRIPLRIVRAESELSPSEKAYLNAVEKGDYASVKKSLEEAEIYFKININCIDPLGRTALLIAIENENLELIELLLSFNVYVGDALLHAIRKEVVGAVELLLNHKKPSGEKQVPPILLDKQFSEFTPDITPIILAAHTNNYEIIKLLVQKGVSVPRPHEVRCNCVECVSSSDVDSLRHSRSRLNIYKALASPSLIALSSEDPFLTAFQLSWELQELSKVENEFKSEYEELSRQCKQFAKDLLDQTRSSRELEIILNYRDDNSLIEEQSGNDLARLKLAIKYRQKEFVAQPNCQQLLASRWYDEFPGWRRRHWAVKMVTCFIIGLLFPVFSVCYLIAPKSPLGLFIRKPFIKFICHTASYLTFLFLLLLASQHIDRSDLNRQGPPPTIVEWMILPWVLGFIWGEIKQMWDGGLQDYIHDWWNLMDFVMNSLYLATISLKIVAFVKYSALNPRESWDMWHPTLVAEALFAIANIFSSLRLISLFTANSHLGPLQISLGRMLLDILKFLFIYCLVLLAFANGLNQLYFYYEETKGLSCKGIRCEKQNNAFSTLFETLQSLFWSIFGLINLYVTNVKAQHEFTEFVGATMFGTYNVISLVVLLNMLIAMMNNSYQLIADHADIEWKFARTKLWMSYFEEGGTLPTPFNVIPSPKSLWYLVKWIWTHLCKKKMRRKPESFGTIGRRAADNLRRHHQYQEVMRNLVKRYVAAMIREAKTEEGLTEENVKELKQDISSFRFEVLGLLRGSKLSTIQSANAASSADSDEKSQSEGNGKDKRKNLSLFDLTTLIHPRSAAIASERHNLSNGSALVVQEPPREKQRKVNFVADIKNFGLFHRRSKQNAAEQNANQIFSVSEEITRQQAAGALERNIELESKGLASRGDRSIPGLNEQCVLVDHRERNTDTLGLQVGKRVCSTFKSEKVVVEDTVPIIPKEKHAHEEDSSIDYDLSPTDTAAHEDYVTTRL

[5] = microbe, parasite or virus in culture; assay type: functional; conditions: Mycobacterium tuberculosis
[6] = biological target: T2, Microphthalmia-associated transcription factor (Homo sapiens, UniProt O75030); assay: TRPM1 promoter luciferase signal decrease, dose response, MITF inhibitor project, cell-based, SK-MEL-5, cherry-picked, set 3 (AID 493073); assay type: functional
T2 sequence (O75030 whole entry): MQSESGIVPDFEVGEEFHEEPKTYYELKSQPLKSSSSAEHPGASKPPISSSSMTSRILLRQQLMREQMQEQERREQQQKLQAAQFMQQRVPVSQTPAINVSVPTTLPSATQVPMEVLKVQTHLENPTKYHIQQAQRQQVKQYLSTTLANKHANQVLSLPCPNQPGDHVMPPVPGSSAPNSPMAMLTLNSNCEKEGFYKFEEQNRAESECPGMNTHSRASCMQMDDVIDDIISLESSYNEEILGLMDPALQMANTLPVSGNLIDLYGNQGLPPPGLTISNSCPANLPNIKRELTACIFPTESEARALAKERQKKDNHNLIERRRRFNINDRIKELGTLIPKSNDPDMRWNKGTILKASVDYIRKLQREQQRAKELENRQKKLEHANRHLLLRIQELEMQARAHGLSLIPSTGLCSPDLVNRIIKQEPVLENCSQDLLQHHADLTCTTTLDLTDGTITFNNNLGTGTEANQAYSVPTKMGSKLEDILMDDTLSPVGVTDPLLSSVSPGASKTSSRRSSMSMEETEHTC

[7] = biological target: T3, Polyadenylate-binding protein 1 (Homo sapiens, UniProt P11940); assay: PABP1 MLLE–PAM2 interaction inhibitors, dose response, miRNA deadenylation inhibitor project, biochemical, fluorescence polarization, Cy5-PAM2 peptide, secondary (AID 602260); assay type: functional; conditions: read-out: IC50_Mean
[8] = biological target: T3, Polyadenylate-binding protein 1; assay: PABP1 MLLE–PAM2 binding inhibitor potency, dose response, biochemical, fluorescence polarization, FITC-PAM2 peptide (AID 602259); assay type: functional; conditions: read-out: IC50_Mean
[9] = inhibitors of clade B AD8 Env fusion, dose response, cell-based, cherry-pick (AID 652062); assay type: functional;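 further: luciferase signal from cell-cell fusion driven by HIV-1 clade B AD8 Env; potency is for inhibitors of fusion seen as a drop in luminescence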
[10] = CEM21 lymphoblast cell cytotoxicity, dose response, cytotoxicity control for viral fusion inhibitor project, CellTiter-Glo luminescence, cherry-picked (AID 652042); assay type: functional, cell-based;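 further: potency for signal decrease meaning cytotoxicity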
[11] = off-target signal loss in HeLa-CEM21 co-culture – HeLa F-luc CTL cells, cherry-picked, counter-screen for HIV-1 Env fusion inhibitor project, dose response (AID 652040); assay type: functional, cell-based;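 further: potency for signal decrease marking cytotoxic or nonspecific inhibition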
[12] = ZM109 Env clade C HIV-1 fusion inhibitors, dose response, HeLa effector, CEM target cells, luciferase, cherry-pick (AID 652058); assay type: functional, cell-based
[13] = inhibitors of HIV Env-driven cell fusion, dose response, cherry-pick (AID 652057); assay type: functional, cell-based
[14] = inhibitors of intracellular T. cruzi replication, confirmation, NIH3T3 host cells, beta-gal luminescence (AID 2044); assay type: functional, cell-based;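 further: intracellular parasites grown in NIH/3T3 mouse fibroblasts as host cells; luminescent beta-galactosidase reporter signal from transgenic T. cruzi replicating inside host cells; inhibitors lower the luminescence signal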
[15] = cytotoxicity toward NIH3T3 fibroblasts, dose response, counter-screen, cell-based, ATP luminescence, mouse fibroblasts (AID 2010); assay type: functional;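 further: cells exposed to compound for about 90 hours before reading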

T3 sequence (P11940 whole entry): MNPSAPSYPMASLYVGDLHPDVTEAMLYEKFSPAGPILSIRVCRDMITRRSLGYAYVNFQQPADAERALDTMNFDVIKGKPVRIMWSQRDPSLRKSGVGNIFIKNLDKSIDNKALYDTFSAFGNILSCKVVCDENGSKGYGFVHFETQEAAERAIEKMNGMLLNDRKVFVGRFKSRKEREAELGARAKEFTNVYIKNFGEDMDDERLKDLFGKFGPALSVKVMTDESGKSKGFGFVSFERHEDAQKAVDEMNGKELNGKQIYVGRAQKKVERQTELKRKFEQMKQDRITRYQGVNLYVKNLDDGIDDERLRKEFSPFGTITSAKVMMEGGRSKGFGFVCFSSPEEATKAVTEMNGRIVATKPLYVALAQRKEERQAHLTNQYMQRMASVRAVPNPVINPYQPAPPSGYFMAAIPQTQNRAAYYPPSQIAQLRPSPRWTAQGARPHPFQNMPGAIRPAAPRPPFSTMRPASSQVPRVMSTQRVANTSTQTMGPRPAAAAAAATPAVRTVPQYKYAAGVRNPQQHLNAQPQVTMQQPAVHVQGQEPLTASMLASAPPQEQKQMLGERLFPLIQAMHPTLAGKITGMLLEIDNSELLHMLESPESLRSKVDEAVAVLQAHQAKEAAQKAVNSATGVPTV

NC1=NC2=C(CCCC2)C2(CCCCC2)S1
EC50 [1]: > 120 µM (not active) | EC50 [2]: 34.5 µM (active) | EC50 [3]: 9.28 µM (active) | EC50 [4]: 1.19 µM (active)

CC(C)(C)c1ccc(C2C3=C(CCCC3=O)N=C3C2=C(O)c2ccccc23)cc1 (stereo not drawn)
CC50 [5]: > 40 µM (active)

Cc1nc2nc(C)c(NS(=O)(=O)c3ccc4c(c3)CCCC4)c(O)n2n1
AC50 [6]: 136 µM (active)

O=C(O)c1cc2ccccc2c(N=Nc2cccnc2)c1O
AC50 [6]: 11.4 µM (active)

Cc1c(N(C)S(=O)(=O)c2cc(C(=O)NCC3CCCO3)ccc2Cl)c(=O)n(-c2ccccc2)n1C (stereo not drawn)
EC50 [4]: 1.88 µM (active)

CCOC(=O)C1(CCc2ccccc2)CCN(Cc2cccc3c2OCO3)CC1
EC50 [4]: 0.668 µM (active)

CNCc1c(OCc2ccccc2)ccc2ccccc12
EC50 [4]: 3.76 µM (active)

COc1ccc(C)cc1-n1nnnc1SCn1nnc2ccccc2c1=O
IC50 [7]: > 66 µM (inactive) | IC50 [8]: > 66 µM (inactive)

Cc1cccc(Cn2c(C(C)(C)C)cc3cccnc32)c1
EC50 [4]: 0.531 µM (active)

CN(CC(=O)Nc1cccc(F)c1)C(=O)CNS(=O)(=O)c1ccc(N(C)C)c([N+](=O)[O-])c1
IC50 [7]: > 66 µM (inactive) | IC50 [8]: > 66 µM (inactive)

Cc1c(CCOC(=O)C23CC4CC(CC(C)(C4)C2)C3)sc[n+]1CC(=O)c1ccccc1
AC50 [9]: 8.8 µM (active) | AC50 [10]: 20.5 µM (active) | AC50 [11]: 5.26 µM (active) | AC50 [12]: 5.44 µM (active) | AC50 [13]: 1.96 µM (active)

CCOC(=O)c1cnc(Nc2nc3ccccc3o2)nc1CSC(=S)N(CC)CC
EC50 [14]: 0.17 µM (active) | CC50 [5]: 28 µM (active) | EC50 [15]: > 60 µM (not active)
